Test results reported in patent publication EP0256909B1, “N,N-bis-(4-fluorophenyl) carbamoyl acetohydroxamic acid and pharmaceutical composition containing it” (priority 1986, dated 1988).

Assays:
in vivo = settings: mouse, in vivo; for LD50 at 24 h: dose létale 50% (DL50), 24 h after administration
Method: Le CRL 41131, en suspension dans une solution de gomme arabique à 5%, a été administré par voie intrapéritonéale sous un volume de 20 ml/kg chez la souris (mâle, NMRI, Evic Ceba) et de 5 ml/kg chez le rat (mâle, CD1, Sprague Dawley, Charles River).
Aussitôt après l'administration de CRL 41131, les souris groupées par lots de 10 sont placées dans des boîtes en Plexiglass (20 x 10 x 10 cm).
On note le nombre d'animaux morts, toutes les heures pendant 4 h et après 24, 48 et 72 h.
La toxicité du CRL 41131 est déterminée dans les mêmes conditions sur des lots de souris placées à raison d'une par boîte.

souris [1] = test: Intergroup aggressiveness; format: in vivo; settings: 32 et 256 mg/kg, comparison section
Method: Après avoir séjourné pendant 3 semaines dans chacune des moitiés d'une cage séparées par une cloison opaque, des groupes de 3 souris reçoivent le CRL 41131. Trente minutes plus tard, les deux groupes d'une même cage sont réunis par retrait de la cloison et on note le nombre de combats qui surviennent en 10 min.

souris [2] = test: Interaction with barbital; format: in vivo; settings: comparison section
Method: Trente minutes après l'administration de CRL 41131, des lots de 10 souris reçoivent une injection intrapéritonéale de barbital (220 mg/kg).

souris [3] = test: Electroshock test; format: in vivo; settings: comparison section, no dose given
[4] = results given in the earlier document; cited from earlier work
rat = test: Interaction with amphetamine; format: in vivo; settings: comparison section, no dose given
souris [5] = test: Interaction with reserpine; format: in vivo; settings: 64 mg/kg, comparison section
Method: Quatre heures après l'injection intrapéritonéale de 2,5 mg/kg de réserpine, des lots de 6 souris reçoivent le CRL 41131.

souris [6] = test: Interaction with oxotremorine; format: in vivo; settings: mouse, oxotremorine 0,5 mg/kg i.p.
Method: Le CRL 41131 est administré à des lots de 6 souris 30 min avant l'injection intrapéritonéale de 0,5 mg/kg d'oxotrémorine.

Q: With `CCN(CC)C(C)C(=O)c1ccccc1` (stereo not shown) [diéthylpropion, reference compound] as the compound, how does the selectivity ratio at 24 h (in vivo) read?
A: The selectivity ratio at 24 h was roughly 8.

Q: With `O=C(CC(=O)N(c1ccccc1)c1ccccc1)NO` [CRL 40385, reference compound] as the compound, how does the “agressivité intergroupe des souris” value (souris [1]) read?
A: Its value is “augmentation”.

Q: What about the “sommeil (association au barbital)” value (souris [2]; 512 mg/kg) of the same compound?
A: Its value is “il ne le fait plus”.

Q: What about the “sommeil (association au barbital)” value (souris [2]; doses below 512 mg/kg) of the same compound?
A: Its value is “diminue d'abord le sommeil”.

Q: What about the “test à l'électrochoc” value (souris [3]) of the same compound?
A: Its value is “s'oppose aux convulsions”.

Q: What about the “effet mis en évidence par un ensemble de tests” value [4] of the same compound?
A: Its value is “effet anti-fatigue”.

Q: What about the “test à l'amphétamine: stéréotypies du rat” value (rat) of the same compound?
A: The value was “prolonge les stéréotypies du rat”.

Q: And the LD50 at 24 h (in vivo; ip, grouped mice)?
A: Its LD50 at 24 h is roughly 1050 mg/kg.

Q: What about the LD50 at 24 h (in vivo; ip, isolated mice) of the same compound?
A: Its LD50 at 24 h is roughly 1500 mg/kg.

Q: And the “test à la réserpine: hypothermie” value (souris [5])?
A: The value was “s'oppose modérément”.

Q: And the “action hypothermisante de l'oxotrémorine (température)” value (souris [6])?
A: The value was “antagonise l'hyperthermie”.

Q: What about the “intensité des tremblements provoqués par l'oxotrémorine” value (souris [6]) of the same compound?
A: Its value is “diminue l'intensité des tremblements”.

Q: Which selectivity ratio (in vivo; ip, rapport, LD50 ratio isolated/grouped mice (formula not readable), same conditions, 24 h) does the source give for `CC(Cc1ccccc1)N(C)Cc1ccccc1` (stereo not shown) [benzophétamine, reference compound] here?
A: Its selectivity ratio is roughly 4.
